Data reported in PubChem BioAssay (NCI).
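Cultured in 96-well plates, cells were exposed to test compound for 48 hours across five concentrations. The concentration for 50% growth inhibition is given as GI50. TGI: concentration producing complete growth inhibition.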

Assays:
Assay in all cases: NCI-60 cell line screen, 48 h
ACHN renal = tested on: ACHN renal
CAKI-1 renal = tested on: CAKI-1 renal
CCRF-CEM leukemia = tested on: CCRF-CEM leukemia
PC-3 prostate = tested on: PC-3 prostate
HL-60(TB) leukemia = tested on: HL-60(TB) leukemia
NCI-H522 lung = tested on: NCI-H522 lung
SF-268 CNS = tested on: SF-268 CNS
SF-539 CNS = tested on: SF-539 CNS
U251 CNS = tested on: U251 CNS
HOP-92 NSCLC = tested on: HOP-92 NSCLC
OVCAR-3 ovarian = tested on: OVCAR-3 ovarian
SK-OV-3 ovarian = tested on: SK-OV-3 ovarian
NCI-H226 lung = tested on: NCI-H226 lung
RPMI-8226 leukemia = tested on: RPMI-8226 leukemia
K-562 leukemia = tested on: K-562 leukemia
T-47D breast = tested on: T-47D breast
EKVX NSCLC = tested on: EKVX NSCLC
DU-145 prostate = tested on: DU-145 prostate
UACC-62 melanoma = tested on: UACC-62 melanoma
COLO 205 colon = tested on: COLO 205 colon
SK-MEL-28 melanoma = tested on: SK-MEL-28 melanoma
NCI/ADR-RES ovarian = tested on: NCI/ADR-RES ovarian
A498 renal = tested on: A498 renal
MDA-MB-435 = tested on: MDA-MB-435
OVCAR-5 ovarian = tested on: OVCAR-5 ovarian
KM12 colon = tested on: KM12 colon
RXF 393 renal = tested on: RXF 393 renal

O=c1c2[nH]c3ccccc3c2nc2n1CCS2
GI50 (ACHN renal): 65.2 µM | TGI (ACHN renal): > 100 µM | GI50 (CAKI-1 renal): 38.7 µM | TGI (CAKI-1 renal): > 100 µM | GI50 (CCRF-CEM leukemia): 0.598 µM | TGI (CCRF-CEM leukemia): > 100 µM | GI50 (PC-3 prostate): 47.8 µM | TGI (PC-3 prostate): > 100 µM | GI50 (HL-60(TB) leukemia): 17.5 µM | TGI (HL-60(TB) leukemia): > 100 µM | GI50 (NCI-H522 lung): > 100 µM | TGI (NCI-H522 lung): > 100 µM | GI50 (SF-268 CNS): > 100 µM | TGI (SF-268 CNS): > 100 µM | GI50 (SF-539 CNS): 85 µM | TGI (SF-539 CNS): > 100 µM | GI50 (U251 CNS): > 100 µM | TGI (U251 CNS): > 100 µM | GI50 (HOP-92 NSCLC): 4.25 µM | TGI (HOP-92 NSCLC): > 100 µM | GI50 (OVCAR-3 ovarian): > 100 µM | TGI (OVCAR-3 ovarian): > 100 µM | GI50 (SK-OV-3 ovarian): > 100 µM | TGI (SK-OV-3 ovarian): > 100 µM | GI50 (NCI-H226 lung): > 100 µM | TGI (NCI-H226 lung): > 100 µM | GI50 (RPMI-8226 leukemia): > 100 µM | TGI (RPMI-8226 leukemia): > 100 µM | GI50 (K-562 leukemia): > 100 µM | TGI (K-562 leukemia): > 100 µM | GI50 (T-47D breast): > 100 µM | TGI (T-47D breast): > 100 µM | GI50 (EKVX NSCLC): 23.6 µM | TGI (EKVX NSCLC): > 100 µM | GI50 (DU-145 prostate): > 100 µM | TGI (DU-145 prostate): > 100 µM | GI50 (UACC-62 melanoma): 92.7 µM | TGI (UACC-62 melanoma): > 100 µM | GI50 (COLO 205 colon): > 100 µM | TGI (COLO 205 colon): > 100 µM | GI50 (SK-MEL-28 melanoma): > 100 µM | TGI (SK-MEL-28 melanoma): > 100 µM | GI50 (NCI/ADR-RES ovarian): > 100 µM | TGI (NCI/ADR-RES ovarian): > 100 µM | GI50 (A498 renal): 56 µM | TGI (A498 renal): > 100 µM | GI50 (MDA-MB-435): > 100 µM | TGI (MDA-MB-435): > 100 µM | GI50 (OVCAR-5 ovarian): > 100 µM | TGI (OVCAR-5 ovarian): > 100 µM | GI50 (KM12 colon): 67 µM | TGI (KM12 colon): > 100 µM | GI50 (RXF 393 renal): > 100 µM | TGI (RXF 393 renal): > 100 µM
